Measurements: PMC11859928, “Design, Synthesis, and Antiproliferative Activity of Novel Indole/1,2,4-Triazole Hybrids as Tubulin Polymerization Inhibitors” (Pharmaceuticals, 2025)

How the values were obtained:
Experiment in all cases: NCI one-dose assay
Format in all cases: cell-based
BT-549 = conditions: Homo sapiens, BT-549, Breast cancer, read-out: Cell growth inhibition %
U251 = conditions: Homo sapiens, U-251, U251, CNS cancer, read-out: Cell growth inhibition %
CAKI-1 = conditions: Homo sapiens, CAKI-1, Renal cancer, read-out: Cell growth inhibition %
UACC-62 = conditions: Homo sapiens, UACC-62, Melanoma, read-out: Cell growth inhibition %
HL-60(TB) = conditions: Homo sapiens, Leukemia, read-out: Cell growth inhibition %
SK-MEL-28 = conditions: Homo sapiens, SK-MEL-28, Melanoma, read-out: Cell growth inhibition %
UACC-257 = conditions: Homo sapiens, UACC-257, Melanoma, read-out: Cell growth inhibition %
NCI-H322M = conditions: Homo sapiens, Non-small cell lung cancer, read-out: Cell growth inhibition %
HT29 = conditions: Homo sapiens, HT-29, HT29, Colon cancer, read-out: Cell growth inhibition %
SR = conditions: Homo sapiens, Leukemia, read-out: Cell growth inhibition %
OVCAR-4 = conditions: Homo sapiens, OVCAR-4, Ovarian cancer, read-out: Cell growth inhibition %
TK-10 = conditions: Homo sapiens, TK-10, Renal cancer, read-out: Cell growth inhibition %
MDA-MB-231/ATCC = conditions: Homo sapiens, Breast cancer, read-out: Cell growth inhibition %
SF-295 = conditions: Homo sapiens, SF-295, CNS cancer, read-out: Cell growth inhibition %
NCI-H226 = conditions: Homo sapiens, NCI-H226, Non-small cell lung cancer, read-out: Cell growth inhibition %
SNB-75 = conditions: Homo sapiens, SNB-75, CNS cancer, read-out: Cell growth inhibition %
T-47D = conditions: Homo sapiens, T47D, Breast cancer, read-out: Cell growth inhibition %
RPMI-8226 = conditions: Homo sapiens, RPMI-8226, Leukemia, read-out: Cell growth inhibition %
NCI-H460 = conditions: Homo sapiens, NCI-H460, Non-small cell lung cancer, read-out: Cell growth inhibition %
MCF7 = conditions: Homo sapiens, MCF7, Breast cancer, read-out: Cell growth inhibition %
M14 = conditions: Homo sapiens, M14, Melanoma, read-out: Cell growth inhibition %
MDA-MB-435 = conditions: Homo sapiens, MDA-MB-435, Melanoma, read-out: Cell growth inhibition %
A549/ATCC = conditions: Homo sapiens, Non-small cell lung cancer, read-out: Cell growth inhibition %
SF-539 = conditions: Homo sapiens, SF-539, CNS cancer, read-out: Cell growth inhibition %
IGROV1 = conditions: Homo sapiens, IGROV-1, IGROV1, Ovarian cancer, read-out: Cell growth inhibition %
MDA-MB-468 = conditions: Homo sapiens, MDA-MB-468, Breast cancer, read-out: Cell growth inhibition %
ACHN = conditions: Homo sapiens, Renal cancer, read-out: Cell growth inhibition %
HS 578 T = conditions: Homo sapiens, Breast cancer, read-out: Cell growth inhibition %
SK-MEL-5 = conditions: Homo sapiens, SK-MEL-5, Melanoma, read-out: Cell growth inhibition %
MALME-3M = conditions: Homo sapiens, Melanoma, read-out: Cell growth inhibition %
K-562 = conditions: Homo sapiens, K562, K-562, Leukemia, read-out: Cell growth inhibition %
KM12 = conditions: Homo sapiens, KM12, Colon cancer, read-out: Cell growth inhibition %
SK-OV-3 = conditions: Homo sapiens, SK-OV-3, Ovarian cancer, read-out: Cell growth inhibition %
OVCAR-8 = conditions: Homo sapiens, OVCAR-8, Ovarian cancer, read-out: Cell growth inhibition %
NCI-H522 = conditions: Homo sapiens, NCI-H522, Non-small cell lung cancer, read-out: Cell growth inhibition %
HCC-2998 = conditions: Homo sapiens, HCC-2998, Colon cancer, read-out: Cell growth inhibition %

| Compound | inhibition at 10 µM (BT-549) [%] | inhibition at 10 µM (U251) [%] | inhibition at 10 µM (CAKI-1) [%] | inhibition at 10 µM (UACC-62) [%] | inhibition at 10 µM (HL-60(TB)) [%] | inhibition at 10 µM (SK-MEL-28) [%] | inhibition at 10 µM (UACC-257) [%] | inhibition at 10 µM (NCI-H322M) [%] | inhibition at 10 µM (HT29) [%] | inhibition at 10 µM (SR) [%] | inhibition at 10 µM (OVCAR-4) [%] | inhibition at 10 µM (TK-10) [%] | inhibition at 10 µM (MDA-MB-231/ATCC) [%] | inhibition at 10 µM (SF-295) [%] | inhibition at 10 µM (NCI-H226) [%] | inhibition at 10 µM (SNB-75) [%] | inhibition at 10 µM (T-47D) [%] | inhibition at 10 µM (RPMI-8226) [%] | inhibition at 10 µM (NCI-H460) [%] | inhibition at 10 µM (MCF7) [%] | other results |
| --- | --- | --- | --- | --- | --- | --- | --- | --- | --- | --- | --- | --- | --- | --- | --- | --- | --- | --- | --- | --- | --- |
| Cc1ccc(C(=O)CSc2nnc(-c3c[nH]c4ccccc34)n2-c2ccccc2)cc1 [Compound 6h, 2-((5-(1H-Indol-3-yl)-4-phenyl-4H-1,2,4-triazol-3-yl)thio)-1-(p-tolyl)ethenone] | 77.6 | 90.2 | 87.6 | 76.1 | 56.6 | 51 | 22.7 | 25.1 | 92.9 | 47 | 116 | 102 | 102 | 88.9 | 141 | 101 | 53.3 | 41.1 | 70.7 | 87.5 | inhibition at 10 µM (M14): 48.9%; inhibition at 10 µM (MDA-MB-435): 61.4%; inhibition at 10 µM (A549/ATCC): 46.7%; inhibition at 10 µM (SF-539): 77.9%; inhibition at 10 µM (IGROV1): 75.8%; inhibition at 10 µM (MDA-MB-468): 52%; inhibition at 10 µM (ACHN): 79.6%; inhibition at 10 µM (HS 578 T): 101%; inhibition at 10 µM (SK-MEL-5): 67.1%; inhibition at 10 µM (MALME-3M): 64.8%; inhibition at 10 µM (K-562): 72.8%; inhibition at 10 µM (KM12): 49%; inhibition at 10 µM (SK-OV-3): 76%; inhibition at 10 µM (OVCAR-8): 88.7%; inhibition at 10 µM (NCI-H522): 98.6%; inhibition at 10 µM (HCC-2998): 33.6% |
| COc1ccc(C(=O)CSc2nnc(-c3c[nH]c4ccccc34)n2-c2ccccc2)cc1 [Compound 6g, 2-((5-(1H-Indol-3-yl)-4-phenyl-4H-1,2,4-triazol-3-yl)thio)-1-(4-methoxyphenyl) Ethenone] | 75.3 | 65.6 | 38.5 | 74.2 | 18.7 | 50.3 | 40.5 | 41.6 | 16.9 | 20.3 | 99.4 | 36.1 | 54.4 | 63.8 | 99.9 | 85 | 43.3 | 27.3 | 34.5 | 54.4 | inhibition at 10 µM (M14): 24.3%; inhibition at 10 µM (MDA-MB-435): 30.9%; inhibition at 10 µM (A549/ATCC): 26%; inhibition at 10 µM (SF-539): 71.5%; inhibition at 10 µM (IGROV1): 39.5%; inhibition at 10 µM (MDA-MB-468): 40.2%; inhibition at 10 µM (ACHN): 77.2%; inhibition at 10 µM (HS 578 T): 84.5%; inhibition at 10 µM (SK-MEL-5): 18.6%; inhibition at 10 µM (MALME-3M): 116%; inhibition at 10 µM (K-562): 41.8%; inhibition at 10 µM (KM12): 11.9%; inhibition at 10 µM (SK-OV-3): 33.7%; inhibition at 10 µM (OVCAR-8): 84.5%; inhibition at 10 µM (NCI-H522): 54.3%; inhibition at 10 µM (HCC-2998): 22.2% |
| C=CCn1c(SCC(=O)c2ccc(Br)cc2)nnc1-c1c[nH]c2ccccc12 [Compound 6d, 2-((4-Allyl-5-(1H-indol-3-yl)-4H-1,2,4-triazol-3-yl)thio)-1-(4-bromophenyl)ethenone] | -5.98 | 0.12 | 9.77 | 16.9 | 7.71 | 3.9 | -7.6 | 0.55 | -4.18 | 11.3 | -8.69 | -34.3 | 3.15 | 6.78 | 9.93 | -6.14 | 2.98 | 1.17 | -6.13 | 2.11 | inhibition at 10 µM (M14): 2.64%; inhibition at 10 µM (MDA-MB-435): -8.05%; inhibition at 10 µM (A549/ATCC): -3.29%; inhibition at 10 µM (SF-539): 8.23%; inhibition at 10 µM (IGROV1): 13.3%; inhibition at 10 µM (MDA-MB-468): 13.1%; inhibition at 10 µM (ACHN): 11.7%; inhibition at 10 µM (HS 578 T): -5.71%; inhibition at 10 µM (SK-MEL-5): 4.07%; inhibition at 10 µM (MALME-3M): 9.34%; inhibition at 10 µM (K-562): 14.5%; inhibition at 10 µM (KM12): -2.46%; inhibition at 10 µM (SK-OV-3): -13.1%; inhibition at 10 µM (OVCAR-8): 5.3%; inhibition at 10 µM (NCI-H522): 3.7%; inhibition at 10 µM (HCC-2998): -4.47% |
